Test systems include A498; M14; CCRF-CEM; Hs-578T; Malme-3M; HOP-92; NCI-H460; HCT-116; UACC-62; UACC-257; TK-10; MOLT-4; SNB-19; SR; NCI-H226; HOP-62; SK-MEL-2; SK-MEL-28; MDA-MB-231.
Common to all, as to experiment: NCI anticancer screen, dose series, 48 h

The source of these data is ChEMBL document CHEMBL1201862, “PubChem BioAssay data set” (2004).

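In this assay, cells in 96-well plates receive the compound at five concentrations for 48 hours. Endpoints are linearly interpolated between the surrounding concentrations. Abbreviation: GI50, concentration required for 50% inhibition of growth.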 The source made the active and inactive calls. Cut-off read from the data, not from the text of the source: active = GI50 up to about 1.1 µM and inactive = higher.

Regarding `CC(C)[S+]1C2=C(CC(C)(C)CC2=O)[N-]c2ccccc21` (stereo not given), the GI50 in the assay with A498, in the assay on M14, in the assay on CCRF-CEM, in the assay with Hs-578T, with Malme-3M and in the assay with HOP-92 was > 100 µM (inactive) throughout. The GI50 in the assay with NCI-H460, in the assay on HCT-116, with UACC-62, with UACC-257, with TK-10 and in the assay with MOLT-4 was > 100 µM (inactive) in each case. For the same molecule, the GI50 with SNB-19, with SR, in the assay on NCI-H226, in the assay with HOP-62, in the assay on SK-MEL-2 and in the assay with SK-MEL-28 was > 100 µM (inactive) throughout. Besides, the GI50 with MDA-MB-231 is > 100 µM (inactive).
Take `CN1C(=O)c2c(c3c4ccccc4n(C4OC(CO)C(O)C(O)C4O)c3c3[nH]c4ccccc4c23)C1=O` (stereo not given): the GI50 was 1.45 µM (inactive) with A498; 2.34 µM (inactive) in the assay on M14; 0.268 µM (active) in the assay on CCRF-CEM; 4.45 µM (inactive) with Hs-578T; 0.194 µM (active) in the assay with Malme-3M; 1.08 µM (active) in the assay on HOP-92. In addition, the GI50 is 3.1 µM (inactive) with NCI-H460; 0.718 µM (active) in the assay on HCT-116; 1.46 µM (inactive) in the assay on UACC-62; 2.49 µM (inactive) in the assay on UACC-257; 3.12 µM (inactive) with TK-10; 0.624 µM (active) with MOLT-4. The GI50 in the assay with SNB-19 was 0.849 µM (active); in the assay on SR, 0.164 µM (active); in the assay on NCI-H226, 1.77 µM (inactive); in the assay on HOP-62 it was 2.93 µM (inactive); with SK-MEL-2, 2.48 µM (inactive); with SK-MEL-28, 2.14 µM (inactive). In addition, in the assay with MDA-MB-231, the GI50 was 1.51 µM (inactive).
As for `CSCCCNC(=O)c1csc(-c2csc(CCNC(=O)CNC(=O)CNC(=O)OC(C)(C)C)n2)n1`, the GI50 in the assay on A498, with M14, with CCRF-CEM, with Hs-578T, in the assay on Malme-3M and in the assay with HOP-92 was > 100 µM (inactive) throughout. The GI50 in the assay with NCI-H460, in the assay with HCT-116, with UACC-62, in the assay on UACC-257, in the assay with TK-10 and in the assay with MOLT-4 was > 100 µM (inactive) in each case. For the same molecule, the GI50 in the assay with SNB-19, in the assay on SR, in the assay on NCI-H226, in the assay with HOP-62, in the assay with SK-MEL-2 and in the assay with SK-MEL-28 was > 100 µM (inactive) each time. The GI50 with MDA-MB-231 was > 100 µM (inactive).
Consider `CC(OCc1ccccc1)C(NC(=O)C1CSSCC(NC(=O)C(Cc2ccccc2)NC(=O)OCc2ccccc2)C(=O)NC(Cc2ccccc2)C(=O)NC(Cc2cn(C=O)c3ccccc23)C(=O)NC(CCCCNC(=O)OCc2ccccc2)C(=O)NC(C(C)OCc2ccccc2)C(=O)N1)C(N)=O` (stereo not given), for which the GI50 is 27.3 µM (inactive) in the assay with A498; 21.1 µM (inactive) in the assay on M14; 36.6 µM (inactive) with CCRF-CEM; > 74.8 µM (inactive) with Hs-578T; 41.1 µM (inactive) in the assay on Malme-3M; 38.3 µM (inactive) with HOP-92. Further, the GI50 in the assay with NCI-H460 was 22.5 µM (inactive); with HCT-116 it was 17.7 µM (inactive); in the assay with UACC-62, 72.6 µM (inactive); with UACC-257, 44 µM (inactive); in the assay on TK-10, 33.7 µM (inactive); with MOLT-4, 2.81 µM (inactive). Further, the GI50 was 36.7 µM (inactive) in the assay on SNB-19; 34 µM (inactive) in the assay on SR; > 75 µM (inactive) in the assay on NCI-H226; 55.1 µM (inactive) in the assay with HOP-62; 13.1 µM (inactive) in the assay with SK-MEL-2; 27.9 µM (inactive) in the assay with SK-MEL-28. Further, the GI50 in the assay on MDA-MB-231 was 12.6 µM (inactive).
As for `Nc1ccc2c3[nH]c4cc(N)ccc4cc-3nc2c1`, the GI50 in the assay with A498 was 0.138 µM (active); with M14 it was 0.344 µM (active); in the assay on CCRF-CEM, 0.158 µM (active); in the assay with Hs-578T it was 0.11 µM (active); in the assay with Malme-3M it was 2.66 µM (inactive); with HOP-92, 0.0422 µM (active). For the same molecule, the GI50 in the assay on NCI-H460 is 0.0775 µM (active); in the assay on HCT-116 it was 0.0582 µM (active); in the assay on UACC-62, 0.194 µM (active); with UACC-257, 0.172 µM (active); in the assay with TK-10 it was 2.09 µM (inactive); in the assay with MOLT-4 it was 0.0789 µM (active). Also, the GI50 with SNB-19 is 0.209 µM (active); in the assay on SR, 0.0535 µM (active); in the assay on NCI-H226 it was 0.174 µM (active); in the assay with HOP-62, 0.117 µM (active); in the assay with SK-MEL-2, 0.413 µM (active); with SK-MEL-28, 0.0746 µM (active). For the same molecule, the GI50 in the assay with MDA-MB-231 is 0.455 µM (active).
In the case of `COC(=O)C(Cc1ccccc1)NC(=O)C(CCC(=O)OCc1ccccc1)NC(=O)OC(C)(C)C` (stereo not given), the GI50 with A498 was > 100 µM (inactive); in the assay with M14 it was > 100 µM (inactive); in the assay on CCRF-CEM, 64.9 µM (inactive); with Hs-578T, > 100 µM (inactive); with Malme-3M, > 100 µM (inactive); in the assay with HOP-92 it was > 100 µM (inactive). Further, the GI50 in the assay with NCI-H460 is 30.5 µM (inactive); with HCT-116, 44.4 µM (inactive); in the assay with UACC-62 it was > 100 µM (inactive); in the assay on UACC-257, > 100 µM (inactive); with TK-10, > 100 µM (inactive); in the assay on MOLT-4 it was > 100 µM (inactive). The GI50 was > 100 µM (inactive) in the assay with SNB-19; 27.2 µM (inactive) with SR; 57.4 µM (inactive) with NCI-H226; > 100 µM (inactive) with HOP-62; > 100 µM (inactive) in the assay with SK-MEL-2; > 100 µM (inactive) in the assay on SK-MEL-28. Also, the GI50 in the assay with MDA-MB-231 is 48.1 µM (inactive).
`Brc1ccc2[nH]cc(-c3csc(-c4c[nH]c5ccc(Br)cc45)n3)c2c1`: the GI50 in the assay with A498 was 2.13 µM (inactive); in the assay with M14 it was 1.53 µM (inactive); in the assay on CCRF-CEM, 1.92 µM (inactive); in the assay on Hs-578T, 3.79 µM (inactive); in the assay on Malme-3M it was 1.56 µM (inactive); with HOP-92, 1.69 µM (inactive). Also, the GI50 was 1.73 µM (inactive) in the assay with NCI-H460; 1.68 µM (inactive) with HCT-116; 1.85 µM (inactive) in the assay on UACC-62; 2.92 µM (inactive) in the assay on UACC-257; 2.69 µM (inactive) in the assay on TK-10; 1.63 µM (inactive) with MOLT-4. Besides, the GI50 was 2.88 µM (inactive) with SNB-19; 1.63 µM (inactive) in the assay on SR; 2.1 µM (inactive) in the assay with NCI-H226; 3.25 µM (inactive) in the assay on HOP-62; 1.9 µM (inactive) with SK-MEL-2; 2.11 µM (inactive) with SK-MEL-28. Also, in the assay with MDA-MB-231, the GI50 is 1.66 µM (inactive).
Take `Cc1cccc2c(N)c3cccc(C(=O)NCCCNCCN)c3nc12`: the GI50 is 11.4 µM (inactive) with A498; 14.1 µM (inactive) with M14; 1.46 µM (inactive) with CCRF-CEM; 0.23 µM (active) in the assay with Hs-578T; 5.57 µM (inactive) with Malme-3M; 5.61 µM (inactive) with HOP-92. In addition, the GI50 in the assay on NCI-H460 is 1.1 µM (active); with HCT-116, 7.5 µM (inactive); with UACC-62, 4.38 µM (inactive); with UACC-257, 16.6 µM (inactive); in the assay with TK-10 it was 17.1 µM (inactive); in the assay on MOLT-4 it was 0.155 µM (active). Besides, the GI50 in the assay with SNB-19 is 3.09 µM (inactive); in the assay on SR, 2.04 µM (inactive); in the assay with NCI-H226, 0.311 µM (active); with HOP-62 it was 3.53 µM (inactive); in the assay with SK-MEL-2, 16.3 µM (inactive); with SK-MEL-28 it was 15.5 µM (inactive). Moreover, the GI50 in the assay with MDA-MB-231 was 0.593 µM (active).
Turning to `CN1CCN(c2c(Cl)cc(Cl)c3[nH]c4ccccc4c(=O)c23)CC1`, the GI50 is 3.96 µM (inactive) with A498; 6.01 µM (inactive) in the assay on M14; 0.67 µM (active) with CCRF-CEM; 4.8 µM (inactive) in the assay on Hs-578T; 1.96 µM (inactive) with Malme-3M; 1.35 µM (inactive) with HOP-92. Further, the GI50 in the assay with NCI-H460 is 11.2 µM (inactive); with HCT-116, 3.21 µM (inactive); in the assay with UACC-62 it was 4.68 µM (inactive); in the assay on UACC-257 it was 8.45 µM (inactive); with TK-10 it was 10.6 µM (inactive); with MOLT-4, 1.18 µM (inactive). In addition, the GI50 was 6.4 µM (inactive) in the assay on SNB-19; 0.301 µM (active) in the assay on SR; 9.77 µM (inactive) in the assay on NCI-H226; 6.15 µM (inactive) in the assay with HOP-62; 12.2 µM (inactive) with SK-MEL-2; 13.1 µM (inactive) with SK-MEL-28. Besides, in the assay with MDA-MB-231, the GI50 was 10.3 µM (inactive).
As for `CN(C)/C=C/c1c2c(nc3ccccc13)C(=O)c1ccccc1C2=O`, the GI50 with A498 is 3.91 µM (inactive); with M14 it was 0.586 µM (active); in the assay on CCRF-CEM, 0.78 µM (active); in the assay on Hs-578T, 1.04 µM (active); with Malme-3M it was 0.71 µM (active); in the assay on HOP-92, 1.95 µM (inactive). The GI50 was 0.262 µM (active) in the assay with NCI-H460; 0.923 µM (active) in the assay on HCT-116; 0.25 µM (active) with UACC-62; 0.498 µM (active) in the assay with UACC-257; 2.13 µM (inactive) in the assay with TK-10; 1.03 µM (active) with MOLT-4. The GI50 in the assay with SNB-19 was 1.83 µM (inactive); in the assay on SR it was 0.449 µM (active); in the assay with NCI-H226, 1.15 µM (inactive); in the assay with HOP-62, 0.266 µM (active); in the assay with SK-MEL-2, 1.12 µM (active); in the assay on SK-MEL-28, 0.222 µM (active). In addition, the GI50 with MDA-MB-231 is 1.55 µM (inactive).
